From ChEMBL document CHEMBL1201862, “PubChem BioAssay data set” (2004)
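Five compound concentrations were applied to cells in 96-well plates for 48 hours; endpoints were derived by simple linear interpolation of the resulting dose-response curve. Here, GI50 denotes the concentration required for 50% inhibition of growth.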 Calls of active or inactive are those of the source. Cut-off read from the data, not from the text of the source: active = GI50 up to about 1.1 µM and inactive = higher.

Experiments:
Experiment in all cases: NCI tumour cell line growth inhibition, 48 h
DMS-273 = system: DMS-273
KM-20L2 = system: KM-20L2
XF498 = system: XF498
M19-MEL = system: M19-MEL
LXFL 529 = system: LXFL 529
RXF 631 = system: RXF 631
DLD-1 = system: DLD-1
BT-549 = system: BT-549
HOP-18 = system: HOP-18

Cc1[nH]c2ccccc2c1C1Cc2ccccc2N1C(=O)/C=C\C(=O)O (stereo not given)
GI50 (DMS-273): 58.2 µM (inactive)
GI50 (KM-20L2): 81.1 µM (inactive)
GI50 (XF498): 22.4 µM (inactive)
GI50 (M19-MEL): 34 µM (inactive)
GI50 (LXFL 529): 21.6 µM (inactive)
GI50 (RXF 631): > 100 µM (inactive)
GI50 (DLD-1): 64.9 µM (inactive)

CN(Cc1nc2c(N)nc(N)nc2nc1N)c1ccc(C(=O)NC(CCC(=O)O)C(=O)O)cc1 (stereo not given)
GI50 (BT-549): > 100 µM (inactive)

CCOC(=O)C1=C(C)NC(c2ccccc2)=C(C(=O)OCc2ccccc2)C1C#Cc1ccccc1 (stereo not given)
GI50 (BT-549): > 100 µM (inactive)

CC(=O)N(CCc1ccccc1)C(C)(C#N)c1ccccc1 (stereo not given)
GI50 (BT-549): > 100 µM (inactive)

COc1ccc2c(c1OC)C(C=C(c1ccccc1)c1ccccc1)CN(C)C2 (stereo not given)
GI50 (DMS-273): 17.5 µM (inactive)
GI50 (KM-20L2): 10.3 µM (inactive)
GI50 (HOP-18): 17.6 µM (inactive)
GI50 (M19-MEL): 30.5 µM (inactive)
GI50 (LXFL 529): 14.4 µM (inactive)
GI50 (RXF 631): 17.4 µM (inactive)
GI50 (DLD-1): 23.4 µM (inactive)

CC(=O)OCCOCn1c2ccccc2c2c3c(c4c5ccccc5n(COCCOC(C)=O)c4c21)C(=O)N(Cc1ccccc1)C3=O
GI50 (DMS-273): > 100 µM (inactive)
GI50 (KM-20L2): > 100 µM (inactive)
GI50 (M19-MEL): > 100 µM (inactive)
GI50 (LXFL 529): > 100 µM (inactive)
GI50 (DLD-1): > 100 µM (inactive)

O=C1CCCC2=C1CC1=C(CCCC1=O)N2c1ccc([N+](=O)[O-])cc1
GI50 (BT-549): > 100 µM (inactive)

O=S(=O)(O)c1ccccc1/N=N\c1ccc(/N=N/c2c(O)ccc3ccccc23)c(S(=O)(=O)O)c1
GI50 (BT-549): > 100 µM (inactive)

CC(=O)O[C@H]1C#C/C=C\C#CC[C@@H]2C(=O)N(C(=O)OC(C)(C)C)[C@@H]12
GI50 (BT-549): 33.5 µM (inactive)

CCN(CC)/C(Sc1ccccc1)=C(\C(Cl)=C(Cl)Cl)[N+](=O)[O-]
GI50 (BT-549): 15.8 µM (inactive)

Nc1nc(O)c2nc(N)n(Cc3ccccc3)c2n1
GI50 (DMS-273): > 100 µM (inactive)
GI50 (KM-20L2): > 100 µM (inactive)
GI50 (XF498): > 100 µM (inactive)
GI50 (M19-MEL): > 100 µM (inactive)
GI50 (LXFL 529): > 100 µM (inactive)
GI50 (DLD-1): > 100 µM (inactive)

CC(=O)Oc1cc(-c2oc3cc(OC(C)=O)c(C4OC(CO)C(O)C(O)C4O)c(OC(C)=O)c3c(=O)c2O)c(OC(C)=O)cc1O (stereo not given)
GI50 (BT-549): > 100 µM (inactive)

CC(=O)NNC(=S)N/C=C1/C(=O)C=C(C)OC1=O
GI50 (BT-549): > 100 µM (inactive)

CC(C)C[C@H]1[C@@H](OCc2ccccc2)COS(=O)N1[C@H](C)c1ccccc1 (stereo not given in full)
GI50 (BT-549): 38.1 µM (inactive)

CC1CCC2CC1NC(=O)CCOCCC(=O)NC2(C)C (stereo not given)
GI50 (BT-549): > 100 µM (inactive)

COc1ccc2/c(=C/c3ccc(N(C)C)cc3)c3cc(-c4ccccc4)[n+](C)n3c2c1
GI50 (BT-549): 0.0957 µM (active)

O=C(Oc1cccnc1)c1cc2cc(CCl)ccc2oc1=O
GI50 (BT-549): 24.8 µM (inactive)

CC(C)=CCC[C@@H](C)C1=C(O)C(=O)C(C)=C(N)C1=O
GI50 (BT-549): 42.2 µM (inactive)

[N-]=[N+]=NC1(Cc2ccccc2)C(=O)c2cccc3c2N(CCC3)C1=O (stereo not given)
GI50 (DMS-273): > 100 µM (inactive)
GI50 (HOP-18): > 100 µM (inactive)
GI50 (M19-MEL): > 100 µM (inactive)
GI50 (LXFL 529): > 100 µM (inactive)
GI50 (DLD-1): > 100 µM (inactive)

CCOC(=O)C1(C#N)OC(=O)c2cnccc21 (stereo not given)
GI50 (BT-549): > 100 µM (inactive)

O=C(NCc1cccs1)OC1CC2CCC1C2 (stereo not given)
GI50 (BT-549): > 100 µM (inactive)

C[C@H](CCC(=O)NCC(=O)O)[C@H]1CC[C@H]2[C@@H]3[C@H](O)C[C@@H]4C[C@H](O)CC[C@]4(C)[C@H]3CC[C@]12C
GI50 (BT-549): > 100 µM (inactive)

Cn1cccc1/C=C/c1cc(Br)c(/C=C/c2cccn2C)cc1Br
GI50 (DMS-273): 18.5 µM (inactive)
GI50 (KM-20L2): 16.3 µM (inactive)
GI50 (HOP-18): 5 µM (inactive)
GI50 (M19-MEL): 18.4 µM (inactive)
GI50 (LXFL 529): 12.3 µM (inactive)
GI50 (RXF 631): 13.9 µM (inactive)
GI50 (DLD-1): 0.643 µM (active)

Cc1ccc(-c2cc(-c3ccccc3)c(C#N)c(=O)[nH]2)cc1
GI50 (DMS-273): > 100 µM (inactive)
GI50 (KM-20L2): > 100 µM (inactive)
GI50 (HOP-18): > 100 µM (inactive)
GI50 (M19-MEL): > 100 µM (inactive)
GI50 (LXFL 529): > 100 µM (inactive)
GI50 (RXF 631): > 100 µM (inactive)
GI50 (DLD-1): > 100 µM (inactive)

NC1CSc2ccccc2NC1=O (stereo not given)
GI50 (BT-549): > 100 µM (inactive)

Cc1ccc(C(=O)Nc2ccc(CP(=O)(O)O)cc2CP(=O)(O)O)cc1NC(=O)Nc1cc(C(=O)Nc2ccc(CP(=O)(O)O)cc2CP(=O)(O)O)ccc1C
GI50 (BT-549): > 100 µM (inactive)

C=CC(O)C#Cc1cnc(OC)nc1OC (stereo not given)
GI50 (BT-549): > 100 µM (inactive)

Cc1ccc2nc(-c3ccccc3)c(N=O)n2c1
GI50 (BT-549): 37.1 µM (inactive)

CC/C(Cl)=N\OC(=O)Nc1ccc(OC)cc1
GI50 (BT-549): 1.6 µM (inactive)

Cc1cn(CCOCCOC(=O)NC(CCCNC(N)=O)C(=O)O)c(=O)[nH]c1=O (stereo not given)
GI50 (BT-549): > 100 µM (inactive)

COc1ccc(N2C(=O)C3c4[nH]c5ccc(C)cc5c4C4CCC(C)CC4C3C2=O)cc1 (stereo not given)
GI50 (BT-549): > 100 µM (inactive)

COc1cccc(C[C@H]2COC(=O)[C@]2(O)Cc2cccc(OC)c2)c1
GI50 (BT-549): > 100 µM (inactive)

CCOC(=O)/C(C#N)=C(O)/C(=C/c1ccccc1Cl)NC(=O)c1ccccc1
GI50 (DMS-273): 31.5 µM (inactive)
GI50 (KM-20L2): > 100 µM (inactive)
GI50 (HOP-18): > 100 µM (inactive)
GI50 (M19-MEL): > 100 µM (inactive)
GI50 (LXFL 529): > 100 µM (inactive)
GI50 (DLD-1): > 100 µM (inactive)

CC(C)c1cccc(=O)c(O)c1
GI50 (DMS-273): 4 µM (inactive)
GI50 (KM-20L2): 2.85 µM (inactive)
GI50 (HOP-18): 1.4 µM (inactive)
GI50 (M19-MEL): 2.15 µM (inactive)
GI50 (LXFL 529): 1.47 µM (inactive)
GI50 (RXF 631): 1.25 µM (inactive)
GI50 (DLD-1): 1.73 µM (inactive)

N#CCc1c(-c2ccccc2)n(S(=O)(=O)c2ccccc2)c2ccccc12
GI50 (DMS-273): > 100 µM (inactive)
GI50 (KM-20L2): > 100 µM (inactive)
GI50 (XF498): > 100 µM (inactive)
GI50 (M19-MEL): > 100 µM (inactive)
GI50 (LXFL 529): > 100 µM (inactive)
GI50 (DLD-1): > 100 µM (inactive)

COC(=O)[C@H](NC(=O)OC(C)(C)C)[C@H]1COC(C)(C)O1
GI50 (BT-549): > 100 µM (inactive)

Cc1sccc1C(=S)Nc1ccc(Cl)c(/C=N/OC(C)(C)C)c1
GI50 (BT-549): 17.7 µM (inactive)
